The results in this text go back to patent publication EP0075104A2, “Cephalosporin derivatives, process for their preparation, pharmaceutical compositions containing them and intermediates” (F. HOFFMANN-LA ROCHE & CO. Aktiengesellschaft, priority 1981, dated 1983).

The test system of one data set is Escherichia coli. Nature of the data set: Oral curative dose (CD50) in infected mice, Escherichia coli. Format: in vivo. The conditions noted are these: Maus, p.o., Erreger Escherichia coli, dose at which 50% of the tested mice survive. The source says: (§1) Die orale antimikrobielle Wirksamkeit der erwähnten Produkte kann anhand von in-vivo-Versuchen an der Maus nachgewiesen werden. Im nachstehenden bedeutet die kurative Dosis (CD50, p.o., mg/kg) diejenige perorale Dosis, bei der 50% der getesteten Mäuse überleben.
(§2) Ergebnis (CD50, p.o. mg/kg)

Another data set concerns Klebsiella pneumoniae. Nature of the data set: Oral curative dose (CD50) in infected mice, Klebsiella pneumoniae. Format: in vivo. The note with it: Maus, p.o., Erreger Klebsiella pneumoniae, dose at which 50% of the tested mice survive.
Source text: as §1, §2

The test system of the next data set is Streptococcus pyogenes. As to the kind of experiment: Oral curative dose (CD50) in infected mice, Streptococcus pyogenes. The conditions noted are these: Maus, p.o., Erreger Streptococcus pyogenes, dose at which 50% of the tested mice survive. It counts as in vivo.
Source text: as §1, §2

The nature of a further data set: in vivo. The conditions noted are these: mouse, po.
Another data set has as its system Serratia marcescens. Nature of the data set: Oral curative dose (CD50) in infected mice, Serratia marcescens. Format: in vivo. The note with it: Maus, p.o., Erreger Serratia marcescens, dose at which 50% of the tested mice survive.
Source text: as §1, §2

For orientation: ED50 means the dose that gives a 50% effect, or the effect in half of the subjects. A high value points to a need for a large dose. The term LD50 denotes the dose at which mortality reaches 50%. The low end stands for a more toxic substance, the high end for a less toxic substance. For `CO/N=C(\C(=O)N[C@@H]1C(=O)N2C(C(=O)OCOC(=O)C(C)(C)C)=C(CSc3nnc(C(=O)OC)n3C)CS[C@H]12)c1csc(N)n1` [Produkt A, Methylen-(6R,7R)-7-[(Z)-2-(2-Amino-4-thiazolyl)-2-(methoxyimino)-acetamido]-3-[[[5-(methoxycarbonyl)-4-methyl-4H-1,2,4-triazol-3-yl]thio]methyl]-8-oxo-5-thia-l-azabicyclo-[4.2.0]oct-2-en-2-carboxylat-pivalat], the ED50 in the data set with Escherichia coli was 0.11 mg/kg; in the data set with Klebsiella pneumoniae, 4.4 mg/kg; in the data set on Streptococcus pyogenes, 1.8 mg/kg. In addition, the LD50 at 24 h in “in vivo” is greater than 5000 mg/kg.

As for `CO/N=C(\C(=O)N[C@@H]1C(=O)N2C(C(=O)OCOC(=O)C(C)(C)C)=C(CSc3nc(C(=O)OC)n(C(C(=O)OCOC(=O)C(C)(C)C)c4ccccc4)n3)CS[C@H]12)c1csc(N)n1` (stereo partly drawn) [Produkt B, Methylen-(6R,7R)-7-C(Z)-2-(2-Amino-4-thiazolyl)-2-(methoxyimino)-acetamido]-3-[[[5-(methoxycarbonyl)-1-[(DL)-α-[[(pivaloyloxy)-methoxy]carbonyl]benzyl]-1H-1,2,4-triazol-3-yl]thio]methyl]-8-oxo-5-thia-1-azabicyclo-[4.2.0]oct-2-en-2-carboxylat-pivalat], the ED50 was 5.5 mg/kg in the data set on Escherichia coli, greater than 25 mg/kg with Serratia marcescens, greater than 25 mg/kg in the data set with Klebsiella pneumoniae and greater than 6 mg/kg in the data set on Streptococcus pyogenes.

With `CO/N=C(\C(=O)N[C@@H]1C(=O)N2C(C(=O)OCOC(=O)C(C)(C)C)=C(CSc3nc(C(=O)OC)n(-c4ccccc4)n3)CS[C@H]12)c1csc(N)n1` [Produkt C, Methylen-(6R,7R)-7-[(Z)-2-(2-Amino-4-thiazolyl)-2-(methoxyimino)-acetamido]3-[[[5-(methoxycarbonyl)-1-phenyl-lH-1,2,4-triazol-3-yl]thio]methyl]-8-oxo-5-thia-1-azabicyclo-[4.2.0]oct-2-en-2-carboxylat-pivalat], the median effective dose (ED50) with Escherichia coli is 1.8 mg/kg; in the data set on Serratia marcescens it was greater than 25 mg/kg; with Klebsiella pneumoniae, greater than 12 mg/kg; in the data set with Streptococcus pyogenes it was 2.4 mg/kg. In the data set “in vivo”, the LD50 at 24 h is greater than 5000 mg/kg.

For `C=CCn1c(SCC2=C(C(=O)OCOC(=O)C(C)(C)C)N3C(=O)[C@@H](NC(=O)/C(=N\OC)c4csc(N)n4)[C@H]3SC2)nnc1C(=O)OC` [Produkt D], the ED50 with Escherichia coli was 0.11 mg/kg; with Serratia marcescens it was 3.6 mg/kg; in the data set with Klebsiella pneumoniae it was greater than 12 mg/kg; with Streptococcus pyogenes it was 1.3 mg/kg. This molecule registered an LD50 at 24 h in “in vivo” greater than 5000 mg/kg.

In the case of `CCCCn1c(SCC2=C(C(=O)OCOC(=O)C(C)(C)C)N3C(=O)[C@@H](NC(=O)/C(=N\OC)c4csc(N)n4)[C@H]3SC2)nnc1C(=O)OC` [Produkt E, Methylen-(6R,7R)-[(Z)-(2-Amino-4-thiazolyl)-2-(methoxyimino)-acetamido]-3-[[[4-(n-butyl)-5-(methoxycarbonyl)-4H-1,2,4-triazol-3-yl]-thio]methyl]-8-oxo-5-thia-1-azabicyclo[4.2.0]-oct-2-en-2-carboxylat-pivalat], the ED50 in the data set on Escherichia coli was 1.1 mg/kg; with Serratia marcescens it was 37 mg/kg; in the data set on Klebsiella pneumoniae, greater than 12 mg/kg; with Streptococcus pyogenes, 3.5 mg/kg.
